Measured values as given in patent US20260007634A1, “PHARMACEUTICAL COMPOSITIONS FOR THE TREATMENT OF ALLERGIC DISEASES” (KINKI UNIVERSITY, priority 2022, published 2026).

Experiments:
Format in all cases: in vivo, mouse
OVA-IgE antibody = experiment: Serum OVA-IgE antibody ELISA, food allergy mice; conditions: serum day 28, oral 10 mg/kg (dexamethasone 2 mg/kg), control 1.5, vehicle 74
Procedure: A 0.2 mL dose of 10 μg ovalbumin (OVA) and 1 mg Alum mixture was administered to 6-week-old female Balb/c mice (Japan SLC Inc.) (day 0 of the example). Alum was used as an adjuvant. Seven days later, the Balb/c mice were immunized again with a 0.2 mL injection of the above mixture. Starting on day 14, mice were orally treated with 10 mg/kg of norathyriol, 10 mg/kg of mangiferin 8a, 10 mg/kg of tofacitinib (JAK inhibitor), 2 mg/kg of dexamethasone (steroid) and 10 mg/kg of olopatadine (antihistamine) daily for 14 consecutive days. Starting on day 14, 10 mg OVA was administered orally every other day […], and the frequency of diarrhea was measured after the final administration on day 28. Note that tofacitinib, dexamethasone, and olopatadine are currently in clinical use in food allergy and were used as control drugs in this example.
Serum was collected from day 28 mice in Examples 21, and OVA-IgE antibody production was measured by enzyme-linked immunosorbent assay (ELISA). This assay was performed using a mouse OVA-IgE antibody ELISAkit (FUJIFILM Wako).

BAFF = experiment: Serum BAFF ELISA, allergic rhinitis mice; conditions: OVA allergic rhinitis; serum day 28; oral 10 mg/kg (dexamethasone 2 mg/kg); control 157, vehicle 1450
Procedure: (§1) A 0.2 mL dose of 50 μg ovalbumin (OVA) and 2 mg Alum mixture was administered to 6-week-old female Balb/c mice (Japan SLC Inc.) (day 0 of the example). Alum was used as an adjuvant. Seven days later and 14 days later, the Balb/c mice were immunized again with 0.2 mL injections of the above mixture. Starting on day 20, mice were orally treated with 10 mg/kg of norathyriol, 10 mg/kg of mangiferin 8a, 10 mg/kg of tofacitinib (JAK inhibitor), 2 mg/kg of dexamethasone (steroid) and 10 mg/kg of olopatadine (antihistamine) daily for 8 consecutive days. Starting on day 21, 400 μg OVA was administered intranasally, and nose-scratching behavior was measured on day 27. Note that tofacitinib, dexamethasone, and olopatadine are currently in clinical use in allergic rhinitis and were used as control drugs in this example.
Serum was collected from day 28 mice in Examples 6 and 7, and BAFF production was measured by enzyme-linked immunosorbent assay (ELISA). This assay was performed using a mouse BAFF ELISA kit (R&D).

IL-4 [1] = experiment: Serum IL-4 ELISA, cedar pollinosis mice; conditions: serum day 28, oral 10 mg/kg (dexamethasone 2 mg/kg), control 55, vehicle 374
Procedure: as §1, with “of 100” for “of 50”, “μg cedar pollen” for “μg ovalbumin (OVA)”, “and 1” for “and 2”, “21, 500” for “21, 400”, “μg cedar pollen” for “μg OVA”, “27. […]” for “27. Note that tofacitinib, dexamethasone, and olopatadine are currently in clinical use in allergic rhinitis and were used as control drugs in this example.”
Serum was collected from day 28 mice in Examples 28 and 29, and IL-4 production was measured by enzyme-linked immunosorbent assay (ELISA). This assay was performed using a mouse IL-4 ELISA kit (R&D).

IgE antibody = experiment: Serum IgE antibody ELISA, bronchial asthma mice; conditions: OVA bronchial asthma; serum day 28; oral 10 mg/kg (dexamethasone 2 mg/kg); control 73, vehicle 117
Procedure: as §1, with “cough” for “nose-scratching behavior”
Serum was collected from day 28 mice in Examples 14, and IgE antibody production was measured by enzyme-linked immunosorbent assay (ELISA). This assay was performed using a mouse IgE antibody ELISA kit (R&D).

IL-5 = experiment: Serum IL-5 ELISA, bronchial asthma mice; conditions: OVA bronchial asthma; serum day 28; oral 10 mg/kg (dexamethasone 2 mg/kg); control 80, vehicle 992
Procedure: as §1, with “cough” for “nose-scratching behavior”
Serum was collected from day 28 mice in Examples 14, and IL-5 production was measured by enzyme-linked immunosorbent assay (ELISA). This assay was performed using a mouse IL-5 ELISA kit (R&D).

[2] = test system: Balb/c mice with ovalbumin-induced allergic rhinitis; experiment: Sneezing, ovalbumin-induced allergic rhinitis mice; conditions: OVA allergic rhinitis; oral daily 8 days from day 20, 10 mg/kg (dexamethasone 2 mg/kg); measured day 27; vs vehicle group
Procedure: as §1, with “sneezing” for “nose-scratching behavior”
The group that was just immunized with OVA is called the subject group, the one that received norathyriol is called the norathyriol group, the one that received mangiferin 8a is called the mangiferin 8a group, the one that received tofacitinib is called the tofacitinib group, the one that received dexamethasone is called the dexamethasone group, and the one that received olopatadine is called the olopatadine group. Each group consisted of five animals.

IL-4 [3] = experiment: Serum IL-4 ELISA, allergic rhinitis mice; conditions: OVA allergic rhinitis; serum day 28; oral 10 mg/kg (dexamethasone 2 mg/kg); control 227, vehicle 872
Procedure: as §1
Serum was collected from day 28 mice in Examples 6 and 7, and IL-4 production was measured by enzyme-linked immunosorbent assay (ELISA). This assay was performed using a mouse IL-4 ELISA kit (R&D).

## O=c1c2cc(O)c(O)cc2oc2cc(O)cc(O)c12 [norathyriol, 1,3,6,7-tetrahydroxyxanthone]
OVA-IgE antibody
  amount of OVA-IgE antibody: 45 U/mL
BAFF
  amount of BAFF: 629 pg/mL
IL-4 [1]
  amount of IL-4: 111 pg/mL
IgE antibody
  amount of IgE antibody: 88 ng/mL
IL-5
  amount of IL-5: 601 pg/mL
[2]
  number of sneezing: significantly decreased the number of sneezing
IL-4 [3]
  amount of IL-4: 495 pg/mL

## C[C@@H]1C[C@H]2[C@@H]3CCC4=CC(=O)C=C[C@]4(C)[C@@]3(F)[C@@H](O)C[C@]2(C)[C@@]1(O)C(=O)CO [dexamethasone]
OVA-IgE antibody
  amount of OVA-IgE antibody: 21 U/mL
BAFF
  amount of BAFF: 266 pg/mL
IL-4 [1]
  amount of IL-4: 78 pg/mL
IgE antibody
  amount of IgE antibody: 34 ng/mL
IL-5
  amount of IL-5: 286 pg/mL
IL-4 [3]
  amount of IL-4: 336 pg/mL

## C[C@@H]1CCN(C(=O)CC#N)C[C@@H]1N(C)c1ncnc2[nH]ccc12 [tofacitinib]
OVA-IgE antibody
  amount of OVA-IgE antibody: 61 U/mL
BAFF
  amount of BAFF: 1041 pg/mL
IL-4 [1]
  amount of IL-4: 213 pg/mL
IgE antibody
  amount of IgE antibody: 101 ng/mL
IL-5
  amount of IL-5: 833 pg/mL
[2]
  number of sneezing: significantly decreased the number of sneezing
IL-4 [3]
  amount of IL-4: 808 pg/mL

## CN(C)CC/C=C1/c2ccccc2COc2ccc(CC(=O)O)cc21 [olopatadine]
OVA-IgE antibody
  amount of OVA-IgE antibody: 68 U/mL
BAFF
  amount of BAFF: 1691 pg/mL
IL-4 [1]
  amount of IL-4: 263 pg/mL
IgE antibody
  amount of IgE antibody: 126 ng/mL
IL-5
  amount of IL-5: 866 pg/mL
[2]
  number of sneezing: significantly decreased the number of sneezing
IL-4 [3]
  amount of IL-4: 717 pg/mL
